Data published in patent US5733719A, “Method of making an assay compound” (priority 1995, dated 1998).
Structures can show the parent of a compound that is named as a salt.

Assays:
[1] = test system: aminopeptidase; assay: Inhibition of aminopeptidase reaction with (H-L-Asp)2 rhodamine 110; type: biochemical; details: approximately 10 mM
Text: The chemical nature of the buffer is important to the reactivity of the assay compound with the cellular enzymes. […] In addition, the assay compound hydrolysis by the enzyme occurs at an increased rate of reaction.

[2] = Effect of sodium chloride on dipeptide reagent; details: 7mM, pH range of 6.5 to 8.7
Text: Inhibitors and poisons (or toxins) are components that can be added to reduce the activity of non-targeted enzymes that provide competing reactions for the leaving group. Inhibitors are usually very selective for a particular enzyme. For example, EDTA only works with enzymes requiring Ca^+2, Mg^+2 and some other metals. […] Preferred inhibitors for particular enzymes are included in Table 1.

[3] = test system: cells; details: even when buffered
Protocol: Viability is confirmed with Trypan Blue or PI-FDA over a time period of 10 seconds to 30 minutes. If the viability of the cell sample at between one and three million cells/mL decreases by10% then the salt of the compound is rejected and another salt of the assay compound is synthesized.

[4] = test system: acute lympholytic Ficoll prepared lymphocytes; assay: Amino peptidase activity in acute lymphocytic leukemia lymphocytes; type: cell-based; details: FIG. 4B, log fluorescence at 525 nm v. time
Text: The cell's ability to fight off an invader lies within its genetics and therefore cell type. The "readiness" however of any genetically capable group of cells to defend is different. A measure of this "readiness" is manifest in the available proteolytic enzymes contained within vacuoles or on the surface of the cell. The assay compound hydrolysis rate increases with increased mass of enzymes giving a picture of immune competence both in number of cells and activity level. […] Images were generated using Universal Imaging.

[5] = Native free fluorescence; type: physicochemical
Text: Assays for peptidases using assay compounds generate fluorescence generally in the range of 10^-5 to 10^-6 Molar free rhodamine 110. Therefore, it is preferred that the free rhodamine 110 and blocked peptide impurities in the assay reagent should be removed to a concentration of less than the fluorescence generated by about 1×10^-6 M and more preferably less than the fluorescence generated by about 10^-7 Molar free indicator group. This amounts to a 100,000 photon count using rhodamine 110 as a standard at 10^-7 -10^-8 M, preferably 5×10^-8 M in a 1 cm path length cuvette when measured over 10 min. on a photon counting spectrofluorometer manufactured by the SLM Company of Chicago, Ill. This corresponds to a use level on the flow cytometer where no cellular false positive can be detected for a 10 minute period at the highest sensitivity setting. […] The presence of impurities causes a decrease in the storage stability of the compound, resulting in an increased autohydrolysis which leads to increased background fluorescence. A compound should be free of impurities such that when the compound (or reagent containing the compound) is stored at 4° C. for 30 days, preferably 90 days, more preferably 180 days, most preferably one year, the background fluorescence increases less than 10%, preferably less than 5%, most preferably less than 1% over these time periods, respectively. […]

[6] = test system: Lymphs; assay: Peptidases to distinguish leukemia from non-leukemia, lymphocytes; type: cell-based, human; parameters: unit not given here
Text: (§1) Artificial intelligence was used to analyze data of cellular enzyme functions, and determine normal and disease states. Peptidases were used to distinguish leukemia from non-leukemia (output pattern). For input patterns lymphocyte and granulocyte cell types were used with aminopeptidases, cathepsins and dipeptidylpeptidase enzyme activities. In this Example, illustrated in Tables 6A-6C, three normals and three leukemia patients were used as known output patterns for the neural network to learn (in practice, the larger the learning set the more accurate unknown prediction will be). Unknowns were then presented to the learned algorithm as shown in the test case examples. Clinical diagnosis was confirmed by physicians. The trained neural network was able to correctly classify the leukemia from the non-leukemia.

[7] = test system: Grans; assay: Peptidases to distinguish leukemia from non-leukemia, granulocytes; type: cell-based, human; parameters: unit not given here
Text: as §1

[8] = test system: enzyme; assay: Effect of dithioerythritol (DTE) on substrate sensitivity; details: dithioerythritol (DTE) at 1 mM
Text: Modulators are components used to […] the sensitivity of the enzyme for the leaving group. The modulators speed up or slow down the activity of an enzyme by changing the active site. […] Preferred modulators for particular enzymes are included in Table 1.

With `[Ca+2].[Cl-].[Cl-]` [calcium chloride] the “inhibition of enzyme reaction with (H-L-Asp)2 rhodamine 110” value [1] was “inhibitory”.
With `[Cl-].[Na+]` [sodium chloride] the “inhibitory effect on dipeptide reagent” value [2] was “slightly inhibitory effect”.
For `Br.Cc1ncc(C)n2nc(CCc3nc(-c4ccccc4)cn3C)nc12` [hydrogen bromide (HBr), hydrogen bromide], the effect on cells [3] was “kills cells”.
With `CC(C)C[C@H](N)C(=O)Nc1ccc2c(c1)Oc1cc(NC(=O)[C@@H](N)CC(C)C)ccc1C21OC(=O)c2ccccc21` [LEU, (Leu)2 Rho 110] the enzymatic activity [4] was “lost their enzymatic activity”.
In the case of `CC(C)C[C@H](N)C(=O)NCC(=O)Nc1ccc2c(c1)Oc1cc(NC(=O)CNC(=O)[C@@H](N)CC(C)C)ccc1C21OC(=O)c2ccccc21` [tartrate salt of (LeuGly)2 rhodamine 110, (H--L--Leu--Gly)2 Rho 110-2Tartrate], the native free fluorescence [5] is reported as 61,000 photons.
In the case of `NCC(=O)Nc1ccc2c(c1)Oc1cc(NC(=O)CN)ccc1C21OC(=O)c2ccccc21` [GLY, (Gly)2 Rho 110], the enzyme activity ([6]; J4 11/21/91 acute leuk.) is reported as 14.02, the enzyme activity ([6]; J4 12/2/91 AL) is reported as 27.32 and the enzyme activity ([6]; J4 12/3/91 acute leuk.) is reported as 31.51. It also gave an enzyme activity ([6]; J5 11/27/91 AML) of 28.36, an enzyme activity ([6]; J19 11/27/91 CLL) of 11.39 and an enzyme activity ([6]; J22 12/2/91 AML) of 24.50. For the same compound, the enzyme activity ([6]; J22 12/9/91 AML) was 27.14, the enzyme activity ([6]; N99° normal) was 30.68 and the enzyme activity ([6]; N191 normal) was 43.57. For the same compound, the enzyme activity ([6]; N192 normal) was 37.47, the enzyme activity ([6]; N193 normal) was 39.30 and the enzyme activity ([6]; N194 normal) was 39.76. The enzyme activity ([6]; N195 normal) was 48.18, the enzyme activity ([6]; N197 normal) was 42.96 and the enzyme activity ([6]; N200 normal) was 42.28. It also gave an enzyme activity ([6]; N201 normal) of 45.32, an enzyme activity ([6]; N202 normal) of 44.55 and an enzyme activity ([6]; N206 normal) of 55.56. For the same compound, the enzyme activity ([6]; P68 tachycardia) was 59.29, the enzyme activity ([6]; P69 pancreatic CA) was 67.38 and the enzyme activity ([6]; P70 cirrhosis/hemobilia) was 54.84. It also gave an enzyme activity ([6]; P71 ac. pyelonephritis) of 41.93, an enzyme activity ([7]; J4 11/21/91 acute leuk.) of 27.79 and an enzyme activity ([7]; J4 12/2/91 AL) of 47.74. For the same compound, the enzyme activity ([7]; J4 12/3/91 acute leuk.) was 48.53, the enzyme activity ([7]; J5 11/27/91 AML) was 56.33 and the enzyme activity ([7]; J19 11/27/91 CLL) was 48.80. The enzyme activity ([7]; J22 12/2/91 AML) was 34.02, the enzyme activity ([7]; J22 12/9/91 AML) was 38.47 and the enzyme activity ([7]; N99° normal) was 45.00. The enzyme activity ([7]; N191 normal) was 73.20, the enzyme activity ([7]; N192 normal) was 43.67 and the enzyme activity ([7]; N193 normal) was 63.33. It also gave an enzyme activity ([7]; N194 normal) of 60.30, an enzyme activity ([7]; N195 normal) of 79.13 and an enzyme activity ([7]; N197 normal) of 76.88. The enzyme activity ([7]; N200 normal) was 59.39, the enzyme activity ([7]; N201 normal) was 75.48 and the enzyme activity ([7]; N202 normal) was 66.22. It also gave an enzyme activity ([7]; N206 normal) of 91.93, an enzyme activity ([7]; P68 tachycardia) of 100.00 and an enzyme activity ([7]; P69 pancreatic CA) of 88.04. The enzyme activity ([7]; P70 cirrhosis/hemobilia) was 88.42, the enzyme activity ([7]; P71 ac. pyelonephritis) was 59.35 and the “effect of DTE on sensitivity” value [8] was “decreases the sensitivity”.
